From patent US20260042774A1, “CAMPTOTHECIN-7-ETHYLAMINE DERIVATIVE, PREPARATION METHOD THEREFOR, AND USE THEREOF” (HANGZHOU ADCORIS BIOPHARMA CO., LTD, priority 2022, published 2026)
Where two headings read alike, the source gives them in different places.

How the values were obtained:
Type in all cases: cell-based
[1] = system: Human esophageal cancer cells OE33; test: Tumor cell growth inhibitory activity (CCK-8), OE33; conditions: OE33 cells, 72 h incubation, CCK-8, read-out: IC50 (nM) for inhibiting the growth of tumor cells, OE33
Description: (§1) Human esophageal cancer cells OE33 (human breast adenocarcinoma cells SK-BR-3, or human gastric cancer cells NCI-N87) was cultured in RPMI1640 (Cellmax) supplemented with 10% fetal bovine serum (Cellmax). Cells in the exponential growth phase were diluted to a concentration of 1×10^5 cells/mL by culture medium and added to 96-well cell culture plates at 100 μL per well, then returned back and incubated overnight in a 37° C. incubator with 5% CO2. On the following day, the compounds were diluted to concentrations of 10000 nM, 2000 nM, 400 nM, 80 nM, 16 nM, 3.2 nM, 0.64 nM, and 0.13 nM by culture medium and the diluted compounds were added to the 96-well cell culture plates at 2 μL per well, with three replicate wells for each concentration. Negative control and blank control groups without addition of compounds were added with 2 μL of the dilution liquid per well. After the addition of the compounds, the plates were returned back to the 37° C. incubator with 5% CO2 to continue the incubation for 72 h. After the incubation, the cell culture plates were removed, and the culture medium was aspirated using a pipette. Then, 100 μL of culture medium containing 10% CCK-8 was added to each well, and the plates were incubated at 37° C. for 3 h. After the incubation, the plates were removed, kept in the dark, and placed in an ELISA plate. Absorbance was measured at 630 nm as the reference wavelength and 450 nm as the test wavelength. The IC50 values (Table 2) were calculated using the four-parameter logistic regression method in GraphPad.

[2] = system: human breast adenocarcinoma cells SK-BR-3; test: Tumor cell growth inhibitory activity (CCK-8), SK-BR-3; conditions: SK-BR-3 cells, 72 h incubation, CCK-8, read-out: IC50 (nM) for inhibiting the growth of tumor cells, SK-BR-3
Description: as §1

[3] = system: human gastric cancer cells NCI-N87; test: Tumor cell growth inhibitory activity (CCK-8), NCI-N87; conditions: NCI-N87 cells, 72 h incubation, CCK-8, read-out: IC50 (nM) for inhibiting the growth of tumor cells, NCI-N87
Description: as §1

[4] = system: NCI-H1975; test: Tumor cell growth inhibitory activity, NCI-H1975; conditions: NCI-H1975 cells, read-out: IC50 (nM) for inhibiting the growth of tumor cells, NCI-H1975
[5] = system: MDA-MB-231; test: Tumor cell growth inhibitory activity, MDA-MB-231; conditions: MDA-MB-231 cells, read-out: IC50 (nM) for inhibiting the growth of tumor cells, MDA-MB-231

Row | Structure (SMILES) | IC50 ([1]; Homo sapiens) | IC50 ([2]; Homo sapiens) | IC50 ([3]; Homo sapiens) | IC50 ([4]; Homo sapiens) | IC50 ([5]; Homo sapiens) | IC50 [1] | IC50 [2] | IC50 [3] | IC50 [4] | IC50 [5]
1 | CC[C@@]1(O)C(=O)OCc2c1cc1n(c2=O)Cc2c-1nc1cc3c(cc1c2CCNC1CCOCC1)OCCO3 [Compound 43, 7-(2-(Tetrahydropyran-4-yl)amino)ethyl-10,11-ethylenedioxycamptothecin] | 39.3 nM | 81.8 nM | 7.43 nM | 58.7 nM | 243 nM | – | – | – | – | –
2 | CC[C@@]1(O)C(=O)OCc2c1cc1n(c2=O)Cc2c-1nc1cc3c(cc1c2CCNC1CCC(OC)CC1)OCCO3 (some centres unmarked) [Compound 44, 7-(2-(4-Methoxycyclohexyl)amino)ethyl-10,11-ethylenedioxycamptothecin] | 13.8 nM | 33.6 nM | 3.54 nM | 27.1 nM | 88.5 nM | – | – | – | – | –
3 | CC[C@@]1(O)C(=O)OCc2c1cc1n(c2=O)Cc2c-1nc1cc3c(cc1c2CCN[C@@H](C)COC)OCCO3 [Compound 45, 7-(2-((S)-Methoxyisopropyl)amino)ethyl-10,11-ethylenedioxycamptothecin] | 10.3 nM | 18.5 nM | 2.46 nM | 106 nM | 960 nM | – | – | – | – | –
4 | CC[C@@]1(O)C(=O)OCc2c1cc1n(c2=O)Cc2c-1nc1cc(F)c(C)c3c1c2[C@@H](NC(=O)CO)CC3 [Dxd, reference compound] | – | – | – | – | – | 7.01 nM | 9.69 nM | 2.48 nM | 286 nM | 135 nM
